Assay results: patent publication US10316017B2, “COT modulators and methods of use thereof” (Gilead Sciences, Inc., priority 2015, dated 2019)
Like-named read-outs stand apart in the source and are kept apart here.

Experiments:
[1] = tested on: TNFα production in LPS-stimulated human monocytes; assay: Cot Monocyte TNFα Cell Based Assay; conditions: Homo sapiens, Monocyte, read-out: EC50 TNF
Method in brief: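 TNFα release quantified by two-antibody TR-FRET, normalised to unstimulated (0%) and LPS-stimulated (100%) wells. Cells got a 1 h compound exposure at 37° C in 0.5% DMSO before 4 h challenge with 50 pg/ml LPS, at 5,000 cells/well.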

[2] = molecular target: T1, human Cot catalytic domain (30-397 amino acids) (Homo sapiens, UniProt P41279); assay: High Throughput Cot Biochemical Assay (KinEASE TR-FRET); conditions: read-out: IC50 HTRF
T1 construct: Purified recombinant human Cot catalytic domain (30-397 amino acids) was purchased from Cama Biosciences; purchased Cama Biosciences (so in the source)
T1 sequence (P41279 30-397): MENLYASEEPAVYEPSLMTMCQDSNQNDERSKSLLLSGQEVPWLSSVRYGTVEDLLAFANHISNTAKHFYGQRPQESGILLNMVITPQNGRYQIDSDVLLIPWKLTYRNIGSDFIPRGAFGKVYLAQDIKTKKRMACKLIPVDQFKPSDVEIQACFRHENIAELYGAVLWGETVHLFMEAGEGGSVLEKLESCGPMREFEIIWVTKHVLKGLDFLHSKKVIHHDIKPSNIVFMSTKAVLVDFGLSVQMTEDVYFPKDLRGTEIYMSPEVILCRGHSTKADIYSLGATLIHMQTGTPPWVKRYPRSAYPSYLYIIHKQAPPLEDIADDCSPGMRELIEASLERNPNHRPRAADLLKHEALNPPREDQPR
Method in brief: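 TR-FRET (KinEASE) read-out: Eu-labelled phospho-specific antibody binds XL665-tagged STK3 peptide (1 μM) phosphorylated by 5 nM human Cot kinase domain (residues 30-397). Reaction at 400 μM ATP, pH 7.0 MOPS buffer with 10 mM MgOAc, 1 mM DTT and 0.1% DMSO.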

[3] = LPS-stimulated human monocytes, TNFα TR-FRET
[4] = Cot KinEASE TR-FRET, 400 μM ATP
[5] = TNFα in LPS-stimulated human monocytes
[6] = Cot KinEASE TR-FRET (HTRF) biochemical assay, 400 μM ATP
[7] = Cot biochemical HTRF (KinEASE TR-FRET) assay

SMILES | EC50 [1, 3] [nM] | IC50 [2, 4] [nM] | EC50 [1, 5] [nM] | IC50 [2, 6] [nM] | IC50 [2, 7] [nM]
[2H][C@](Nc1cc(Br)c2ncc(C#N)c(N[C@H](CC)c3ccccc3)c2c1)(c1ccc(F)cc1)c1cn(C2CC2)nn1 [Example 288, 8-bromo-6-(((S)-(1-cyclopropyl-1H-1,2,3-triazol-4-yl)(4-fluorophenyl)methyl-d)amino)-4-(((R)-1-phenylpropyl)amino)quinoline-3-carbonitrile] | – | – | 130 | 6 | –
CC[C@@H](Nc1c(C#N)cnc2c(Cl)cc(N[C@@H](c3ccccc3)c3cn(C4CCN(C(C)(C)C)CC4)nn3)cc12)c1ccccc1 [Example 629, 6-(((S)-(1-(1-(tert-butyl)piperidin-4-yl)-1H-1,2,3-triazol-4-yl)(phenyl)methyl)amino)-8-chloro-4-(((R)-1-phenylpropyl)amino)quinoline-3-carbonitrile] | – | – | 72 | – | 3
[2H][C@](Nc1cc(Cl)c2ncc(C#N)c(N[C@@H]3CCOCC3(C)C)c2c1)(c1ccc(F)cc1)c1cn(C2CC2)nn1 [Example 146, 8-chloro-6-(((S)-(1-cyclopropyl-1H-1,2,3-triazol-yl)(4-fluorophenyl)methyl-d)amino)-4-(((R)-3,3-dimethyltetrahydro-2H-pyran-4-yl)amino) quinoline-3-carbonitrile] | – | – | 895 | 95 | –
[2H][C@](Nc1cc(Cl)c2ncc(C#N)c(N[C@H](CC#N)C(C)(C)C)c2c1)(c1ccc(F)cc1)c1cn(C2CC2)nn1 [Example 247, 8-chloro-4-(((R)-1-cyano-3,3-dimethylbutan-2-yl)amino)-6-(((S)-(1-cyclopropyl-1H-1,2,3-triazol-4-yl)(4-fluorophenyl)methyl-d)amino)quinoline-3-carbonitrile] | – | – | 635 | 28 | –
[2H][C@](Nc1cc(Cl)c2ncc(C#N)c(N[C@H](CCC#N)c3ccccc3)c2c1)(c1ccc(Cl)cc1)c1cn(C2CC2)nn1 [Example 74, 8-chloro-6-(((S)-(4-chlorophenyl)(1-cyclopropyl-1H-1,2,3-triazol-4-yl)methyl-d)amino)-4-(((R)-3-cyano-1-phenylpropyl)amino) quinoline-3-carbonitrile] | – | – | 30 | 3 | –
CC(C)(C)N1CCC(n2cc([C@@H](Nc3cc(Cl)c4ncc(C#N)c(NCC5CCCCO5)c4c3)c3ccc(F)cc3)nn2)CC1 (stereo partly drawn) [Example 437, 6-(((S)-(1-(1-(tert-butyl)piperidin-4-yl)-1H-1,2,3-triazol-4-yl)(4-fluorophenyl)methyl)amino)-8-chloro-4-(((tetrahydro-2H-pyran-2-yl)methyl)amino)quinoline-3-carbonitrile] | – | – | 3910 | – | 448
[2H][C@](Nc1cc(Cl)c2ncc(C#N)c(Nc3cnc(F)c(F)c3)c2c1)(c1ccc(F)cc1)c1cn(CF)nn1 [Compound 44] | – | – | 902 | 53 | –
N#Cc1cnc2c(Cl)cc(N[C@H](c3c[nH]nn3)c3ccc(F)cc3F)cc2c1Nc1cnc(F)c(F)c1 [Example 460, (S)-8-chloro-6-(((2,4-difluorophenyl)(1H-1,2,3-triazol-4-yl)methyl)amino)-4-((5,6-difluoropyridin-3-yl)amino)quinoline-3-carbonitrile] | – | – | 1260 | – | 23
[2H][C@](Nc1cc(C#N)c2ncc(C#N)c(N[C@H](CC)c3ccccc3)c2c1)(c1ccc(F)cc1)c1cn(C)nn1 [Example 208, 6-(((S)-(4-fluorophenyl)(1-methyl-1H-1,2,3-triazol-4-yl)methyl-d)amino)-4-(((R)-1-phenylpropyl)amino) quinoline-3,8-dicarbonitrile] | – | – | 83 | 3 | –
[2H][C@](Nc1cc(Cl)c2ncc(C#N)c(NC3C4CC5CC(C4)CC3C5)c2c1)(c1ccc(F)cc1)c1cn(C2CC2)nn1 (stereo partly drawn) [Example 246, 4-(((1S,3S,5S,7S)-adamantan-2-yl)amino)-8-chloro-6-(((S)-(1-cyclopropyl-1H-1,2,3-triazol-4-yl)(4-fluorophenyl)methyl-d)amino)quinoline-3-carbonitrile] | – | – | 490 | 19 | –
N#CCn1cc([C@@H](Nc2cc(Cl)c3ncc(C#N)c(Nc4cnc(F)c(F)c4)c3c2)c2ccc(F)cc2)nn1 [Example 410, (S)-8-chloro-6-(((1-(cyanomethyl)-1H-1,2,3-triazol-4-yl)(4-fluorophenyl)methyl)amino)-4-((5,6-difluoropyridin-3-yl)amino)quinoline-3-carbonitrile] | – | – | 723 | – | 30
C[C@@H](Nc1c(C#N)cnc2c(Cl)cc(N[C@@H](c3ccccc3)c3cn(C4CCN(C(C)(C)C)CC4)nn3)cc12)c1ccccc1F [Example 619, 6-(((S)-(1-(1-(tert-butyl)piperidin-4-yl)-1H-1,2,3-triazol-4-yl)(phenyl)methyl)amino)-8-chloro-4-(((R)-1-(2-fluorophenyl)ethyl)amino) quinoline-3-carbonitrile] | – | – | 826 | – | 16

Now from value to compound:

EC50 [1, 3] [nM] | IC50 [2, 4] [nM] | EC50 [1, 5] [nM] | IC50 [2, 6] [nM] | IC50 [2, 7] [nM] | SMILES
82 | 13 | – | – | – | Cc1cc(C#N)ccc1[C@H](Nc1cc(C#N)c2ncc(C#N)c(NCC(C)(C)C)c2c1)c1cn(C2(C(F)F)CC2)nn1 [Example 1139, (S)-6-(((4-cyano-2-methylphenyl)(1-(1-(difluoromethyl)cyclopropyl)-1H-1,2,3-triazol-4-yl)methyl)amino)-4-(neopentylamino)quinoline-3,8-dicarbonitrile]
226 | 12 | – | – | – | Cc1c(-c2ccncc2)cccc1[C@H](Nc1cc(Cl)c2ncc(C#N)c(NCC(C)(C)C)c2c1)c1cn(C2(C(F)(F)F)CC2)nn1 [Example 1095, (S)-8-chloro-6-(((2-methyl-3 (pyridin-4-yl)phenyl)(1-(1-(trifluoromethyl)cyclopropyl)-1H-1,2,3-triazol-4-yl)methyl)amino)-4-(neopentylamino)quinoline-3-carbonitrile]
103 | 10 | – | – | – | CC(C)(C)CNc1c(C#N)cnc2c(C#N)cc(N[C@@H](c3ccc(F)cc3)c3cn(C45CC(C4)C5)nn3)cc12 [Example 1130, (S)-6-(((1-(bicyclo[1.1.1]pentan-1-yl)-1H-1,2,3-triazol-4-yl)(4-fluorophenyl)methyl)amino)-4-(neopentylamino)quinoline-3,8-dicarbonitrile]
– | – | 1750 | – | 168 | Cn1cnc(C(Nc2cc(Cl)c3ncc(C#N)c(Nc4ccc(F)c(Cl)c4)c3c2)c2ccc(Cl)cc2)c1 (centres unmarked) [Example 894, 8-chloro-4-((3-chloro-4-fluorophenyl)amino)-6-(((4-chlorophenyl)(1-methyl-1H-imidazol-4-yl)methyl)amino)quinoline-3-carbonitrile]
67 | 9 | – | – | – | CC(C)(C)CNc1c(C#N)cnc2c(C#N)cc(N[C@@H](c3ccc(F)cc3)c3cn(C4(C5CC5)CC4)nn3)cc12 [Example 973, (S)-6-(((1-([1,1'-bi (cyclopropan)]-1-yl)-1H-1,2,3-triazol-4-yl)(4-fluorophenyl)methyl)amino)-4-(neopentylamino) quinoline-3,8-dicarbonitrile]
– | – | 1310 | – | 41 | N#Cc1cnc2c(Cl)cc(NC(c3ccc(Cl)cc3)c3cn(C4CNC4)nn3)cc2c1Nc1ccc(F)c(Cl)c1 (centres unmarked) [Example 872, 6-(((1-(azetidin-3-yl)-1H-1,2,3-triazol-4-yl)(4-chlorophenyl)methyl)amino)-8-chloro-4-((3-chloro-4-fluorophenyl)amino)quinoline-3-carbonitrile]
118 | 1 | – | – | – | CC(C)(C)CNc1c(C#N)cnc2c(Cl)cc(N[C@@H](c3cccc(-n4cncn4)c3)c3cn(C4CC4)nn3)cc12 [Example 1031, (S)-6-(((3-(1H-1,2,4-triazol-1-yl)phenyl)(1-cyclopropyl-1H-1,2,3-triazol-4-yl)methyl)amino)-8-chloro-4-(neopentylamino)quinoline-3-carbonitrile]
93 | 4 | – | – | – | CC[C@@H](Nc1c(C#N)cnc2c(C#N)cc(N[C@@H](c3cccc(C(=O)N4CC(F)(F)C4)c3)c3cn(C4CC4)nn3)cc12)c1ccccc1 [Example 943, 6-(((S)-(1-cyclopropyl-1H-1,2,3-triazol-4-yl)(3-(3,3-difluoroazetidine-1-carbonyl)phenyl)methyl)amino)-4-(((R)-1-phenylpropyl)amino)quinoline-3,8-dicarbonitrile]
– | – | 797 | – | 51 | CC(C)(C)N1CCC(n2cc([C@@H](Nc3cc(Cl)c4ncc(C#N)c(Nc5cncc(Cl)c5)c4c3)c3ccc(Cl)cc3)nn2)CC1 [Example 692, (S)-6-(((1-(1-(tert-butyl)piperidin-4-yl)-1H-1,2,3-triazol-4-yl)(4-chlorophenyl)methyl)amino)-8-chloro-4-((5-chloropyridin-3-yl)amino)quinoline-3-carbonitrile]
66 | 13 | – | – | – | Cc1c(-c2cn[nH]c2)cccc1[C@H](Nc1cc(Cl)c2ncc(C#N)c(NCC(C)(C)C)c2c1)c1cn(C2(C(F)(F)F)CC2)nn1 [Example 1164, (S)-8-chloro-6-(((2-methyl-3-(1H-pyrazol-4-yl)phenyl) (1-(1-(trifluoromethyl)cyclopropyl)-1H-1,2,3-triazol-4-yl)methyl)amino)-4-(neopentylamino) quinoline-3-carbonitrile]
